Results as given in article PMC12655529, “Serendipitous Hinge Modulation Hypothetically Reprograms Caerin 1.1-LC Antibacterial Mechanism and Gram-Negative Selectivity” (Pharmaceutics, 2025).
Square brackets hold non-standard residues; d marks the D form. Ends that are not written are not given here. Peptide text beside a SMILES is read from it.

How the values were obtained:
[1] = tested on: Acinetobacter baumannii ATCC BAA-747; format: cell-based; conditions: ATCC BAA-747
Procedure: (§1) The antimicrobial activities of the peptides were evaluated by determining their minimal inhibitory concentration (MIC) and minimal bactericidal concentration (MBC) values following reported protocols [20]. The tested microorganisms included seven Gram-negative bacterial strains (Escherichia coli ATCC 8739, E. coli ATCC-BAA 2340, E. coli NCTC 13846, Klebsiella pneumoniae ATCC 43816, K. pneumoniae ATCC BAA-2342, Pseudomonas aeruginosa ATCC 9027, Acinetobacter baumannii ATCC BAA-747), three Gram-positive bacterial strains (Staphylococcus aureus ATCC 6538, Enterococcus faecalis NCTC 12697, MRSA NCTC 12493, and the fungal strain Candida albicans ATCC 10231. For the assay, each bacterial strain was cultured overnight at 37 °C in 100 mL of medium in a flask. The cultures were then subcultured to reach the logarithmic growth phase and diluted to 5 × 10^5 CFU/mL. Peptide samples were serially diluted two-fold in microplates, with concentrations ranging from 128 μM to 1 μM. The diluted bacterial suspensions were mixed with the peptide solutions and incubated overnight at 37 °C. The MIC values were determined by measuring the absorbance of each well using a Synergy HT plate reader (Agilent, Cheshire, UK). For MBC determination, aliquots from wells showing no visible growth were inoculated onto agar plates to assess bacterial viability. Each experiment was repeated independently three times and conducted in three independent replicates.

[2] = tested on: Enterococcus faecalis NCTC 12697; format: cell-based; conditions: NCTC 12697
Procedure: as §1

[3] = tested on: Escherichia coli ATCC 8739; format: cell-based; conditions: ATCC 8739
Procedure: as §1

MRSA NCTC 12493 = format: cell-based, Staphylococcus aureus
[4] = tested on: K. pneumoniae ATCC BAA-2342; format: cell-based, Klebsiella pneumoniae
E. coli (ATCC-BAA 2340) = format: cell-based, Escherichia coli; conditions: ATCC-BAA 2340
Procedure: The peptide sensitivity was determined in different salt- and serum-containing environments. Bacterial strains were prepared following the MIC detection protocol described previously. To evaluate peptide sensitivity under physiological conditions, various concentrations of salt ions (150 mM NaCl, 4.5 mM KCl, 2 mM CaCl2, 1 mM MgCl2, 8 µM ZnCl2, 6 µM NH4Cl, or 4 µM FeCl3) and serum (10% FBS) were prepared in McCartney bottles prior to the addition of bacterial suspensions. The subcultured bacterial suspensions were then introduced to these modified media conditions. For MIC determination, the treated bacterial suspensions were diluted and dispensed into 96-well plates containing peptide solutions at graded concentrations. This assay allowed for the detection of potential alterations in MIC values, serving as an indicator of peptide sensitivity under different physiological conditions. All experiments were independently repeated three times, each with three replicates.

E. coli ATCC BAA-2340 = format: cell-based, Escherichia coli
Procedure: as §1

[5] = tested on: Klebsiella pneumoniae ATCC 43816; format: cell-based; conditions: ATCC 43816
E. coli NCTC 13846 = format: cell-based, Escherichia coli
Procedure: as §1

Gram-negative bacteria = experiment: Geometric mean MIC and therapeutic index, Gram-negative; format: cell-based; conditions: geometric mean of MICs
Gram-positive bacteria = experiment: Geometric mean MIC and therapeutic index, Gram-positive; format: cell-based; conditions: geometric mean of MICs
[6] = tested on: Pseudomonas aeruginosa ATCC 9027; format: cell-based
Procedure: as §1

[7] = tested on: Staphylococcus aureus ATCC 6538; format: cell-based; conditions: ATCC 6538
horse red blood cells = experiment: Haemolysis assay; format: cell-based; conditions: concentration inducing 10% haemolysis of horse erythrocytes; 4% (v/v) in PBS, 2 h, 37 °C, absorbance 570 nm; no haemolysis at maximum testing concentration (128 μM) recorded as 256 μM
Procedure: The peptide cytotoxicity against mammalian erythrocytes was evaluated by haemolysis assay on horse red blood cells (E&O Laboratories Ltd., Falkirk, UK). Fresh horse blood was washed three times with PBS and resuspended to a final concentration of 4% (v/v) in PBS. The diluted blood suspension was then mixed with peptide solutions at varying concentrations and incubated for 2 h at 37 °C. Red blood cell suspensions treated with 0.1% Triton X-100 and PBS were used as controls. The Triton X-100-treated suspension was the positive control (for 100% haemolysis), while the PBS-treated suspension was the blank control. Following incubation, the mixtures were centrifuged at 1000× g for 10 min to separate erythrocytes from the supernatant. The absorbance of the supernatants was detected at 570 nm. The percentage haemolysis was calculated by following the equationPercentage Haemolysis = (AbsSample − AbsBlank)/(AbsPositive − AbsBlank) × 100%

CC[C@H](C)[C@H](NC(=O)[C@H](CCCCN)NC(=O)[C@@H]1CCCN1C(=O)[C@@H](CC(C)C)NC(=O)[C@H](C)NC(=O)[C@H](CCCCN)NC(=O)[C@@H]1CCCN1C(=O)[C@@H](NC(=O)[C@@H](NC(=O)[C@H](CC(C)C)NC(=O)[C@H](CCCCN)NC(=O)[C@H](CC(C)C)NC(=O)[C@H](CO)NC(=O)CNC(=O)[C@H](CC(C)C)NC(=O)[C@@H](NC(=O)[C@H](CO)NC(=O)[C@H](CC(C)C)NC(=O)[C@H](CC(C)C)NC(=O)CN)C(C)C)[C@@H](C)CC)C(C)C)C(=O)N[C@@H](C)C(=O)N[C@@H](CCC(=O)O)C(=O)N[C@@H](CCCCN)C(=O)N[C@@H](CC(C)C)C(N)=O [Caerin 1.1-LC PKAL(D)P] (H-GLLSVLGSLKLIVPKA[dL]PKIAEKL-NH2; N-terminus assumed)
8 µM: MBC, MRSA (NCTC 12493) (MRSA NCTC 12493) | MBC, E. coli (NCTC 13846) (E. coli NCTC 13846) | MIC, E. coli (NCTC 13846) (E. coli NCTC 13846)
16 µM: MIC, FBS (E. coli (ATCC-BAA 2340)) | MIC, Mg^2+ (E. coli (ATCC-BAA 2340))
4/4 µM: MBC, P. aeruginosa (ATCC 9027) [6] | MIC, P. aeruginosa (ATCC 9027) [6]
4.87 µM: GM MIC Gram-Negative (Gram-negative bacteria)
>128 µM: MBC, E. faecalis (NCTC 12697) [2] | MIC, E. faecalis (NCTC 12697) [2]
64 µM: GM MIC Gram-Positive (Gram-positive bacteria)
4 µM: MIC, MRSA (NCTC 12493) (MRSA NCTC 12493) | MBC, K. pneumoniae (ATCC BAA-2342) [4] | MIC, K. pneumoniae (ATCC BAA-2342) [4] | MIC, Na^+ (E. coli (ATCC-BAA 2340)) | MBC, K. pneumoniae (ATCC 43816) [5] | MIC, K. pneumoniae (ATCC 43816) [5]
2 µM: MBC, E. coli (ATCC 8739) [3] | MIC, E. coli (ATCC 8739) [3] | MIC, Control (E. coli (ATCC-BAA 2340)) | MIC, Fe^3+ (E. coli (ATCC-BAA 2340)) | MIC, K^+ (E. coli (ATCC-BAA 2340)) | MIC, NH4^+ (E. coli (ATCC-BAA 2340)) | MBC, E. coli (ATCC BAA-2340) (E. coli ATCC BAA-2340) | MIC, E. coli (ATCC BAA-2340) (E. coli ATCC BAA-2340)
43.4 µM: HC10 (horse red blood cells)
128 µM: MIC, Ca^2+ (E. coli (ATCC-BAA 2340))
32 µM: MBC, A. baumannii (ATCC BAA-747) [1] | MIC, A. baumannii (ATCC BAA-747) [1] | MBC, S. aureus (ATCC 6538) [7] | MIC, S. aureus (ATCC 6538) [7]

GLLSVLGSLKKIVPHVVPLIAEKL-NH2 [Caerin 1.1-LC 11K]
128 µM: MBC, E. faecalis (NCTC 12697) [2] | MIC, E. faecalis (NCTC 12697) [2]
16 µM: MBC, E. coli (ATCC 8739) [3] | MBC, K. pneumoniae (ATCC BAA-2342) [4] | MIC, K. pneumoniae (ATCC 43816) [5] | MIC, P. aeruginosa (ATCC 9027) [6]
32 µM: MBC, A. baumannii (ATCC BAA-747) [1] | MIC, A. baumannii (ATCC BAA-747) [1] | MBC, K. pneumoniae (ATCC 43816) [5] | MBC, P. aeruginosa (ATCC 9027) [6] | MBC, S. aureus (ATCC 6538) [7]
4 µM: MIC, E. coli (NCTC 13846) (E. coli NCTC 13846)
8.8 µM: GM MIC Gram-Negative (Gram-negative bacteria)
8 µM: MIC, E. coli (ATCC 8739) [3] | MBC, MRSA (NCTC 12493) (MRSA NCTC 12493) | MIC, MRSA (NCTC 12493) (MRSA NCTC 12493) | MIC, K. pneumoniae (ATCC BAA-2342) [4] | MBC, E. coli (ATCC BAA-2340) (E. coli ATCC BAA-2340) | MBC, E. coli (NCTC 13846) (E. coli NCTC 13846) | MIC, S. aureus (ATCC 6538) [7]
35.8 µM: HC10 (horse red blood cells)
2 µM: MIC, E. coli (ATCC BAA-2340) (E. coli ATCC BAA-2340)
20.1 µM: GM MIC Gram-Positive (Gram-positive bacteria)

GLLSVLGSLKKIVPHVVPWIAKKL-NH2 [Caerin 1.1-LC 11K.12K.19W]
16 µM: MIC, E. faecalis (NCTC 12697) [2]
32 µM: MBC, E. faecalis (NCTC 12697) [2]
4/4 µM: MBC, P. aeruginosa (ATCC 9027) [6] | MIC, P. aeruginosa (ATCC 9027) [6]
10.5 µM: HC10 (horse red blood cells)
2.97 µM: GM MIC Gram-Positive (Gram-positive bacteria)
8 µM: MIC, Ca^2+ (E. coli (ATCC-BAA 2340)) | MIC, FBS (E. coli (ATCC-BAA 2340))
2 µM: MBC, E. coli (ATCC 8739) [3] | MIC, E. coli (ATCC 8739) [3] | MBC, MRSA (NCTC 12493) (MRSA NCTC 12493) | MIC, MRSA (NCTC 12493) (MRSA NCTC 12493) | MBC, E. coli (ATCC BAA-2340) (E. coli ATCC BAA-2340) | MIC, E. coli (ATCC BAA-2340) (E. coli ATCC BAA-2340) | MIC, E. coli (NCTC 13846) (E. coli NCTC 13846) | MBC, S. aureus (ATCC 6538) [7] | MIC, S. aureus (ATCC 6538) [7]
4 µM: MBC, A. baumannii (ATCC BAA-747) [1] | MIC, A. baumannii (ATCC BAA-747) [1] | MBC, K. pneumoniae (ATCC BAA-2342) [4] | MIC, K. pneumoniae (ATCC BAA-2342) [4] | MIC, Control (E. coli (ATCC-BAA 2340)) | MIC, Fe^3+ (E. coli (ATCC-BAA 2340)) | MIC, K^+ (E. coli (ATCC-BAA 2340)) | MIC, Mg^2+ (E. coli (ATCC-BAA 2340)) | MIC, NH4^+ (E. coli (ATCC-BAA 2340)) | MIC, Na^+ (E. coli (ATCC-BAA 2340)) | MBC, K. pneumoniae (ATCC 43816) [5] | MIC, K. pneumoniae (ATCC 43816) [5] | MBC, E. coli (NCTC 13846) (E. coli NCTC 13846) | GM MIC Gram-Negative (Gram-negative bacteria)
